The test has as its target T1, PLA2 (phospholipase A2) (Rattus norvegicus, UniProt P14423).
T1 construct: from tissue; host or cells: rat platelets
T1 sequence (P14423 22-146): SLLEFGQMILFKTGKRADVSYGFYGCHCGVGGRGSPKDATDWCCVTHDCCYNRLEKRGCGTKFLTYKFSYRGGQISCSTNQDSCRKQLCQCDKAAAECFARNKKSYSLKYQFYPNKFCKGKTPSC
In words: Phospholipase A2 inhibitory activity (release of free fatty acid from 14C-labelled phosphatidylethanolamine). Type of test: biochemical. The conditions noted are these: PLA2 from rat platelets; CaCl2 (3 mM) in Tris-buffer (0.1 M, pH 7.4); 37 °C for 20 minutes. The protocol: The compounds of the present invention were tested for their Phospholipase A2 inhibitory activity by the following procedure.
1-Palmitoyl-2-[1-^14C]-linoleoyl L-3-Phosphatidylethanolamine (Amersham, Inc., 59 mCi/mmol) were diluted with L-α-phosphatidylethanolamine (Sigma, Co., from […]) [2,000 dpm/nmol], and the dilution was sonicated. The resultant dilution was used as a substrate. The PLA2 (phospholipase A2) which was used in the test was from rat platelets. The PLA2 and the substrate preparation were added to a solution of CaCl2 (3 mM) in Tris-buffer (0.1 M, pH 7.4), and the mixture was allowed to react at 37 °C for 20 minutes. Then, the reaction was terminated by adding 1.25 ml of Dole's reagent to the reaction mixture and stirring immediately the resultant mixture. To the mixture was added 0.5 ml of distilled water and 0.8 ml of n-heptane, and the mixture was stirred, centrifuged, and the supernatant was taken into another tube. To this supernatant were added an additional 0.8 ml of n-heptane and silica gel, and the mixture was stirred, centrifuged, and the supernatant was taken into vials. Toluene cocktail was added to the vials. The amount of free fatty acid released by PLA2 was determined using a liquid scintillation counter.
Inhibitory activity (%) was estimated by the formula: [(DPM value at the addition of the inhibitor - DPM value without PLA2) / (DPM value with only PLA2 - DPM value without PLA2)] × 100.

Where a name gives a salt, the structure may show the parent alone.

`COc1c(C)c(OCc2ccccc2)c(C)c(C)c1C(=O)O` [Compound 8] came in with an IC50 of more than 330 µM.

In turn, `COc1c(C)c(O)c(C)c(C)c1C(=O)O` [Compound 9] returned an IC50 of more than 480 µM.

`COc1c(C)c(OC)c(C(=O)Oc2c(C)c(C)c(C(=O)Oc3c(C)c(C)c(C(=O)O)c(OC)c3C)c(OC)c2C)c(C)c1Cc1c(C)c(C(=O)Oc2c(C)c(C)c(C(=O)Oc3c(C)c(C)c(C(=O)O)c(OC)c3C)c(OC)c2C)c(OC)c(C)c1OC` [Compound 44, Bis[5-[4'-(4''-carboxy-3''-methoxy-2'',5'',6''-trimethylphenoxycarbonyl)-3'-methoxy-2',5',6',-trimethylphenoxycarbonyl]-2,4-dimethoxy-3,6-dimethylphenyl] methane] came in with an IC50 of 0.13 µM.

Take `COc1c(C)c(OC)c(C(=O)O)c(C)c1Cc1c(C)c(C(=O)Oc2c(C)c(C)c(C(=O)Oc3c(C)c(C)c(C(=O)O)c(OC)c3C)c(OC)c2C)c(OC)c(C)c1OC` [Compound 48]: the IC50 was 3 µM.

Compound `COc1c(C)c(OC)c(C(=O)Oc2c(C)c(C)c(C(=O)O)c(OC)c2C)c(C)c1Cc1c(C)c(C(=O)Oc2c(C)c(C)c(C(=O)O)c(OC)c2C)c(OC)c(C)c1OC` [Compound 50] showed an IC50 of 4.6 µM.

For `COc1c(C)c(OC(=O)c2c(C)c(C)c(OC(=O)c3cccc(C(=O)Oc4c(C)c(C)c(C(=O)Oc5c(C)c(C)c(C(=O)O)c(OC)c5C)c(OC)c4C)c3)c(C)c2OC)c(C)c(C)c1C(=O)O` [Compound 52], the IC50 turned out to be 0.16 µM.

For the compound `COc1c(C)c(OC(=O)c2c(C)c(C)c(OC(=O)c3cc(=O)cc(C(=O)Oc4c(C)c(C)c(C(=O)Oc5c(C)c(C)c(C(=O)O)c(OC)c5C)c(OC)c4C)o3)c(C)c2OC)c(C)c(C)c1C(=O)O` [Compound 54], 0.88 µM corresponded to half-maximal inhibition (IC50).

Consider `COc1cc(OC)c(C(=O)Oc2c(C)c(C)c(C(=O)Oc3c(C)c(C)c(C(=O)O)c(OC)c3C)c(OC)c2C)cc1Oc1cc(C)c(OC)c(C(=O)Oc2c(C)c(C)c(C(=O)Oc3c(C)c(C)c(C(=O)O)c(OC)c3C)c(OC)c2C)c1` [Compound 56], for which the IC50 was determined as 0.035 µM.

Take `CCCCOC(=O)c1cc(Sc2ccc(OC)c(C(=O)Oc3c(C)c(C)c(C(=O)O)c(OC)c3C)c2)ccc1OC` [Compound 59, n-Butyl 3-[3'-(4''-carboxy-3''-methoxy-2'',5'',6''-trimethylphenoxycarbonyl)-4'-methoxyphenyl]-thio-6-methoxybenzoate]: the IC50 turned out to be 1.45 µM.

`Cc1c(O)c(Cc2c(C)c(C(=O)Oc3c(C)c(C)c(C(=O)Oc4c(C)c(C)c(C(=O)O)c(O)c4C)c(O)c3C)c(O)c(C)c2O)c(C)c(C(=O)Oc2c(C)c(C)c(C(=O)Oc3c(C)c(C)c(C(=O)O)c(O)c3C)c(O)c2C)c1O` [Compound 62, Bis[5-[4'-(4''-carboxy-3''-hydroxy-2'',5'',6''-trimethylphenoxycarbonyl)-3'-hydroxy-2',5',6'-trimethylphenoxycarbonyl]-2,4-dihydroxy-3,6-dimethylphenyl] methane] registered an IC50 of 0.95 µM.

Compound `COc1c(C)c(OC)c(C(=O)Oc2cc(C)c(C(=O)Oc3c(C)c(C)c(C(=O)Oc4c(C)c(C)c(C(=O)O)c(OC)c4C)c(OC)c3C)c(O)c2C)c(C)c1Oc1ccc(C[C@H](N)C(=O)O)cc1` [Compound 74, [5-[4'-[4''-(4'''-Carboxy-3'''-methoxy-2''',5''',6'''-trimethylphenoxycarbony)-3''-methoxy-2'',5'',6''-trimethylphenoxycarbony]-3'-hydroxy-2',5'-dimethylphenoxycarbony]-2,4-dimethoxy-3,6-dimethylphenyl] [4''''-(2'''''-amino-2'''''-carboxyethyl)phenyl] ether trifluoroacetate] came in with an IC50 of 0.07 µM.

Consider `COc1c(C)c(OC)c(C(=O)Oc2c(C)c(O)cc(C)c2C(=O)Oc2c(C)c(C)c(C(=O)Oc3c(C)c(C)c(C(=O)O)c(OC)c3C)c(OC)c2C)c(C)c1Oc1ccc(C[C@H](N)C(=O)O)cc1` [Compound 77, [5-[6'-[4''-(4'''-Carboxy-3'''-methoxy-2''',5''',6'''-trimethylphenoxycarbony)-3''-methoxy-2'',5'',6''-trimethylphenoxycarbony]-3'-hydroxy-2',5'-dimethylphenoxycarbony]-2,4-dimethoxy-3,6-dimethylphenyl] [4''''-(2'''''-amino-2'''''-carboxyethyl)phenyl] ether trifluoroacetate], for which the IC50 came out at 0.34 µM.

The compound `COc1ccc(Sc2ccc(OC)c(C(=O)Oc3c(C)c(C)c(C(=O)Oc4c(C)c(C)c(C(=O)O)c(OC)c4C)c(OC)c3C)c2)cc1C(=O)Oc1c(C)c(C)c(C(=O)Oc2c(C)c(C)c(C(=O)O)c(OC)c2C)c(OC)c1C` [Compound 104a, Bis[3-[4'-[(4''-carboxy-3''-methoxy-2'',5'',6''-trimethyl)phenoxycarbony]-3'-methoxy-2',5',6'-trimethyl]-phenoxycarbony-4-methoxyphenyl] sulfide] displayed an IC50 of 0.049 µM.

With `COc1ccc(S(=O)(=O)c2ccc(OC)c(C(=O)Oc3c(C)c(C)c(C(=O)Oc4c(C)c(C)c(C(=O)O)c(OC)c4C)c(OC)c3C)c2)cc1C(=O)Oc1c(C)c(C)c(C(=O)Oc2c(C)c(C)c(C(=O)O)c(OC)c2C)c(OC)c1C` [Compound 104b, Bis[3-[4'-[(4''-carboxy-3''-methoxy-2'',5'',6''-trimethyl)phenoxycarbony]-3'-methoxy-2',5',6'-trimethyl]-phenoxycarbony-4-methoxyphenyl] sulfone], the IC50 was found to be 0.05 µM. The IC50 values of the last two compounds are within 1.5-fold of each other.

`COc1ccc([S+]([O-])c2ccc(OC)c(C(=O)Oc3c(C)c(C)c(C(=O)Oc4c(C)c(C)c(C(=O)O)c(OC)c4C)c(OC)c3C)c2)cc1C(=O)Oc1c(C)c(C)c(C(=O)Oc2c(C)c(C)c(C(=O)O)c(OC)c2C)c(OC)c1C` [Compound 104c, Bis[3-[4'-[(4''-carboxy-3''-methoxy-2'',5'',6''-trimethyl)phenoxycarbony]-3'-methoxy-2',5',6'-trimethyl]-phenoxycarbony-4-methoxyphenyl] sulfoxide] came in with an IC50 of 0.12 µM.

Regarding `COc1ccc(Sc2ccc(OC)c(C(=O)Oc3c(C)c(C)c(C(=O)Oc4c(C)c(C)c(C(=O)O)c(OC)c4C)c(OC)c3C)c2)cc1C(=O)O` [Compound 108], inhibition was half-maximal at 2.1 µM (IC50).

`COc1ccc(Oc2ccc(OC)c(C(=O)Oc3c(C)c(C)c(C(=O)O)c(OC)c3C)c2)cc1C(=O)Oc1c(C)c(C)c(C(=O)O)c(OC)c1C` [Compound 110a, Bis[3-[4'-carboxy-3'-methoxy-2',5',6'-trimethylphenoxycarbonyl)-4-methoxyphenyl] ether]: the midpoint of inhibition, the IC50, lay at 3.4 µM.

In turn, `COc1ccc(Sc2ccc(OC)c(C(=O)Oc3c(C)c(C)c(C(=O)O)c(OC)c3C)c2)cc1C(=O)Oc1c(C)c(C)c(C(=O)O)c(OC)c1C` [Compound 110b, Bis[3-(4'-carboxy-3'-methoxy-2',5',6'-trimethylphenoxycarbonyl)-4-methoxyphenyl] sulfide] yielded an IC50 of 2.5 µM.

For `COc1ccc(Oc2ccc(OC)c(C(=O)Oc3c(C)c(C)c(C(=O)Oc4c(C)c(C)c(C(=O)O)c(OC)c4C)c(OC)c3C)c2)cc1C(=O)Oc1c(C)c(C)c(C(=O)Oc2c(C)c(C)c(C(=O)O)c(OC)c2C)c(OC)c1C` [Compound 120], the IC50 was 0.042 µM.

The compound `COc1c(C)c(OC(=O)c2c(C)c(C)c(OC(=O)/C=C/C(=O)Oc3c(C)c(C)c(C(=O)Oc4c(C)c(C)c(C(=O)O)c(OC)c4C)c(OC)c3C)c(C)c2OC)c(C)c(C)c1C(=O)O` [Compound 121, Trans-1,2-bis[4'-(4''-carboxy-3''-methoxy-2'',5'',6''-trimethylphenoxycarbonyl)-3^'-methoxy-2',5',6'-trimethylphenoxycarbony] ethene] registered an IC50 of 0.33 µM.

Compound `COc1c(C)c(OC(=O)c2c(C)c(C)c(OC(=O)CCC(=O)Oc3c(C)c(C)c(C(=O)Oc4c(C)c(C)c(C(=O)O)c(OC)c4C)c(OC)c3C)c(C)c2OC)c(C)c(C)c1C(=O)O` [Compound 122, 1,2-Bis[4'-[4''-carboxy-3''-methoxy-2'',5'',6''-trimethylphenoxycarbonyl)-3'-methoxy-2',5',6'-trimethylphenoxycarbony] ethane] came in with an IC50 of 0.04 µM.

Usually IC50 stands for the concentration that gives 50% inhibition.

Source of the values: patent EP0547231B1, “PHOSPHOLIPASE A2 INHIBITOR” (SHIONOGI & CO., LTD., priority 1991, dated 1993).
